The source of these data is PubChem BioAssay AID1963959 (Molecular Pharmacology Branch, DTP, NCI, 2024).

Several values for one entry are separate records, joined by “and”; a condition that tells them apart may be missing. Equal entries are not always repeated.

This assay concerns T-47D spheroids with HUVEC/MSC, viability. The assay is described as follows: Anticancer human tumor T-47D cell line growth inhibition [PI3K].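 For all read-outs here: spheroids exposed to agents for seven days before reading.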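 For viability, T/C: percent of DMSO vehicle control luminescence so 100% = untreated growth.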 The settings on record: for viability, T/C: stronger effect = lower value. Put shortly:
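Three cell types, namely tumor cells, endothelial cells and mesenchymal stem cells, formed each spheroid. Combinations with four PI3K inhibitors were screened at clinically achievable concentrations decreasing by half-log, and spheroid viability was recorded.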

Where [1] appears, read: curve of first compound, second compound 0.0316 µM.
Where [2] appears, read: curve of first compound, second compound 0.1 µM.
Setting [3] is: curve of first compound, second compound 0.316 µM.
[4] abbreviates: curve of first compound, second compound 1 µM.
Where [5] appears, read: curve of first compound, second compound 3.16 µM.
The mark [6] stands for this setting: curve of first compound, second compound 10 µM.

`Cn1cnc2c(F)c(Nc3ccc(Br)cc3Cl)c(C(=O)NOCCO)cc21` + CC(Nc1ncnc2nc[nH]c12)c1cc2cccc(Cl)c2c(=O)n1-c1ccccc1: the half-maximal inhibitory concentration (IC50) is over 3 µM under setting [1]; over 3 µM under setting [2]; over 3 µM under setting [3]; over 3 µM under setting [4]; over 3 µM under setting [5]; over 3 µM under setting [6]. Also, the viability, T/C (second compound 0.0316 µM, first compound 0.00949 µM) was 104%; the viability, T/C (second compound 0.0316 µM, first compound 0.03 µM) is 93.4%; the viability, T/C (second compound 0.0316 µM, first compound 0.0949 µM) is 100%; the viability, T/C (second compound 0.0316 µM, first compound 0.3 µM) is 81%; the viability, T/C (second compound 0.0316 µM, first compound 0.949 µM) is 84.2%; the viability, T/C (second compound 0.0316 µM, first compound 3 µM) was 77.1%. For the same molecule, the viability, T/C reads like this: (second compound 0.1 µM, first compound 0.00949 µM) 94.6%; (second compound 0.1 µM, first compound 0.03 µM) 86%; (second compound 0.1 µM, first compound 0.0949 µM) 87.8%; (second compound 0.1 µM, first compound 0.3 µM) 83.8%; (second compound 0.1 µM, first compound 0.949 µM) 93.2%; (second compound 0.1 µM, first compound 3 µM) 102%. The viability, T/C by setting is: (second compound 0.316 µM, first compound 0.00949 µM) 73.4%; (second compound 0.316 µM, first compound 0.03 µM) 83.2%; (second compound 0.316 µM, first compound 0.0949 µM) 79.7%; (second compound 0.316 µM, first compound 0.3 µM) 83.9%; (second compound 0.316 µM, first compound 0.949 µM) 82%; (second compound 0.316 µM, first compound 3 µM) 75.2%. The viability, T/C is, setting by setting: (second compound 1 µM, first compound 0.00949 µM) 96.9%; (second compound 1 µM, first compound 0.03 µM) 104%; (second compound 1 µM, first compound 0.0949 µM) 86.1%; (second compound 1 µM, first compound 0.3 µM) 94.8%; (second compound 1 µM, first compound 0.949 µM) 75%; (second compound 1 µM, first compound 3 µM) 79.3%. For the same molecule, the viability, T/C runs as follows: (second compound 3.16 µM, first compound 0.00949 µM) 79.3%; (second compound 3.16 µM, first compound 0.03 µM) 94.9%; (second compound 3.16 µM, first compound 0.0949 µM) 85.2%; (second compound 3.16 µM, first compound 0.3 µM) 95.5%; (second compound 3.16 µM, first compound 0.949 µM) 80.2%; (second compound 3.16 µM, first compound 3 µM) 82.5%. The viability, T/C is 78.3% (second compound 10 µM, first compound 0.00949 µM); 82.2% (second compound 10 µM, first compound 0.03 µM); 71.3% (second compound 10 µM, first compound 0.0949 µM); 69.3% (second compound 10 µM, first compound 0.3 µM); 80.9% (second compound 10 µM, first compound 0.949 µM); 79.9% (second compound 10 µM, first compound 3 µM).
As for `CCCS(=O)(=O)Nc1ccc(F)c(C(=O)c2c[nH]c3ncc(-c4ccc(Cl)cc4)cc23)c1F`, the viability, T/C (compound 0.0316 µM) was 91% and 97.4% (2×) and 99.9%; the viability, T/C (compound 0.1 µM) was 94.3% [middle of 4 runs]; the viability, T/C (compound 0.316 µM) is 106% [middle of 4 runs]; the viability, T/C (compound 1 µM) was 107% [middle of 4 runs]; the viability, T/C (compound 10 µM) was 47.2% [middle of 4 runs]. Under “curve of compound”, the 50% inhibitory concentration (IC50) was 9.4 µM [middle of 4 runs].
Regarding `C#Cc1c(F)ccc2cc(O)cc(-c3ncc4c(N5CC6CCC(C5)N6)nc(OCC56CCCN5CC(F)C6)nc4c3F)c12` (stereo unspecified) + CC(Nc1ncnc2nc[nH]c12)c1cc2cccc(Cl)c2c(=O)n1-c1ccccc1, the half-inhibitory concentration (IC50) reads like this: under setting [1], over 10 µM; under setting [2], over 10 µM; under setting [3], over 10 µM; under setting [4], over 10 µM; under setting [5], over 10 µM; under setting [6], over 10 µM. Also, the viability, T/C is, setting by setting: (second compound 0.0316 µM, first compound 0.0316 µM) 101%; (second compound 0.0316 µM, first compound 0.1 µM) 116%; (second compound 0.0316 µM, first compound 0.316 µM) 96.5%; (second compound 0.0316 µM, first compound 1 µM) 106%; (second compound 0.0316 µM, first compound 3.16 µM) 102%; (second compound 0.0316 µM, first compound 10 µM) 104%. The viability, T/C is, setting by setting: (second compound 0.1 µM, first compound 0.0316 µM) 96.4%; (second compound 0.1 µM, first compound 0.1 µM) 86.3%; (second compound 0.1 µM, first compound 0.316 µM) 106%; (second compound 0.1 µM, first compound 1 µM) 106%; (second compound 0.1 µM, first compound 3.16 µM) 110%; (second compound 0.1 µM, first compound 10 µM) 89.3%. Further, the viability, T/C (second compound 0.316 µM, first compound 0.0316 µM) is 109%; the viability, T/C (second compound 0.316 µM, first compound 0.1 µM) was 80.9%; the viability, T/C (second compound 0.316 µM, first compound 0.316 µM) was 104%; the viability, T/C (second compound 0.316 µM, first compound 1 µM) was 95.2%; the viability, T/C (second compound 0.316 µM, first compound 3.16 µM) was 106%; the viability, T/C (second compound 0.316 µM, first compound 10 µM) is 97.8%. The viability, T/C is 92.4% (second compound 1 µM, first compound 0.0316 µM); 116% (second compound 1 µM, first compound 0.1 µM); 97.5% (second compound 1 µM, first compound 0.316 µM); 76.7% (second compound 1 µM, first compound 1 µM); 116% (second compound 1 µM, first compound 3.16 µM); 93.1% (second compound 1 µM, first compound 10 µM). The viability, T/C was 92.6% (second compound 3.16 µM, first compound 0.0316 µM); 93.5% (second compound 3.16 µM, first compound 0.1 µM); 101% (second compound 3.16 µM, first compound 0.316 µM); 84.3% (second compound 3.16 µM, first compound 1 µM); 86.8% (second compound 3.16 µM, first compound 3.16 µM); 86% (second compound 3.16 µM, first compound 10 µM). Besides, the viability, T/C (second compound 10 µM, first compound 0.0316 µM) is 107%; the viability, T/C (second compound 10 µM, first compound 0.1 µM) was 91.3%; the viability, T/C (second compound 10 µM, first compound 0.316 µM) was 109%; the viability, T/C (second compound 10 µM, first compound 1 µM) is 87.9%; the viability, T/C (second compound 10 µM, first compound 3.16 µM) was 97.3%; the viability, T/C (second compound 10 µM, first compound 10 µM) was 89.6%.
Take `CC1(C)CCC(CN2CCN(c3ccc(C(=O)NS(=O)(=O)c4ccc(NCC5CCOCC5)c([N+](=O)[O-])c4)c(Oc4cnc5[nH]ccc5c4)c3)CC2)=C(c2ccc(Cl)cc2)C1`: the viability, T/C (compound 0.0316 µM) is 93.2% [middle of 4 runs]; the viability, T/C (compound 0.1 µM) is 99% [middle of 4 runs]; the viability, T/C (compound 0.316 µM) was 99% and 91.9% and 111% (2×). Besides, the IC50 (curve of compound) is over 10 µM.
For the molecule `CNC(=O)c1ccc(N2C(=S)N(c3ccc(C#N)c(C(F)(F)F)c3)C(=O)C2(C)C)cc1F`, the viability, T/C (compound 0.0316 µM) was 106% [middle of 4 runs]; the viability, T/C (compound 0.1 µM) is 95.9% [middle of 4 runs]; the viability, T/C (compound 0.316 µM) is 105% [middle of 4 runs]; the viability, T/C (compound 1 µM) is 108% [middle of 4 runs]; the viability, T/C (compound 3.16 µM) was 91.4% [middle of 4 runs]; the viability, T/C (compound 10 µM) was 89.3% [middle of 4 runs]. For the same molecule, the IC50 (curve of compound) is over 10 µM.

A word on the IC50: it is the concentration at which inhibition is half-maximal. A word on the viability, T/C: it is the result in the treated group divided by that in the control group, in per cent.
